Experiments:
[1] = plasma protein binding by equilibrium dialysis; assay type: in vitro ADME, mouse; conditions: for plasma protein binding (% bound): female CD1 mouse plasma, equilibrium dialysis 5 h, 37 °C
P. falciparum 3D7 = test: growth inhibition of P. falciparum, SYBR green assay; assay type: cell-based, Plasmodium falciparum
intrinsic clearance = assay type: in vitro ADME, mouse; conditions: for microsomal stability (CLi): female CD1 mouse liver microsomes, 0.5 µM compound; for microsomal stability / in vitro DMPK properties, in words: hepatic microsomes
recombinant PfTMPK [2] = biological target: T1, recombinant PfTMPK (Plasmodium falciparum, UniProt Q8I4S1); conditions: read-out: Km of PfTMPK for TMP; substrate constant; cited from earlier work
T1 sequence (Q8I4S1 1-210): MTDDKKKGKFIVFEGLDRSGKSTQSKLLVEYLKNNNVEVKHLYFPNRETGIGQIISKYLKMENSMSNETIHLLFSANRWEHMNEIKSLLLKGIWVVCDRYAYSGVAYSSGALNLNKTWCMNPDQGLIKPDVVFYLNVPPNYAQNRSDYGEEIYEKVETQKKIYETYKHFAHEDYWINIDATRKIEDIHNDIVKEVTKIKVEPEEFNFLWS

recombinant PfTMPK [3] = biological target: T1, recombinant PfTMPK; test: PfTMPK inhibition, coupled assay with pyruvate kinase and lactate dehydrogenase; assay type: biochemical

Row | inhibitory activity against PfTMPK, in words (recombinant PfTMPK [3]) | Compound | activity against the parasite, in words (P. falciparum 3D7) | also measured
1 | no or very low inhibitory activity | Cc1cn([C@H]2C[C@H](O)[C@@H](CNC(=O)c3ccc4ccccc4c3)O2)c(=O)[nH]c1=O [Compound 36] |  | 
2 | no or very low inhibitory activity | Cc1cn([C@@H]2C[C@H](O)[C@@H](CNC(=O)c3ccc4ccccc4c3)O2)c(=O)[nH]c1=O [Compound 11] |  | 
3 | no or very low inhibitory activity | Cc1cn([C@H]2C[C@H](O)[C@@H](CNS(=O)(=O)c3ccc4ccccc4c3)O2)c(=O)[nH]c1=O [Compound 35] |  | 
4 | no or very low inhibitory activity | Cc1cn([C@@H]2C[C@H](O)[C@@H](CNS(=O)(=O)c3ccc4ccccc4c3)O2)c(=O)[nH]c1=O [Compound 10] |  | 

Continued, molecule first:

Row | Compound | inhibitory activity against PfTMPK, in words (recombinant PfTMPK [3]) | activity against the parasite, in words (P. falciparum 3D7) | also measured
5 | Cc1cn([C@@H]2C[C@H](O)[C@@H](CNC(=O)Nc3ccc(N4CCCCC4)cc3)O2)c(=O)[nH]c1=O [Compound 63] |  | sub-micromolar activity | unbound fraction in plasma, in words [1]: particularly large unbound fraction; plasma protein binding (% bound) [1]: 52.3 % bound; microsomal stability (CLi) (intrinsic clearance): 0.5 mL/min/g; microsomal stability / in vitro DMPK properties, in words (intrinsic clearance): good in vitro DMPK properties
6 | Cc1cn([C@@H]2C[C@H](O)[C@@H](CNC(=O)Nc3ccc(OCc4ccccc4)cc3)O2)c(=O)[nH]c1=O [Compound 60] |  | sub-micromolar activity | plasma protein binding (% bound) [1]: 81.2 % bound; microsomal stability (CLi) (intrinsic clearance): 3 mL/min/g; microsomal stability / in vitro DMPK properties, in words (intrinsic clearance): good in vitro DMPK properties
7 | Cc1cn([C@@H]2C[C@H](O)[C@@H](CNC(=O)Nc3ccc(-c4ccccc4)cc3)O2)c(=O)[nH]c1=O [Compound 57] |  | sub-micromolar activity | plasma protein binding (% bound) [1]: 92.0 % bound; microsomal stability (CLi) (intrinsic clearance): 1.9 mL/min/g; microsomal stability / in vitro DMPK properties, in words (intrinsic clearance): good in vitro DMPK properties
8 | Cc1cn([C@H]2C[C@H](O)[C@@H](COP(=O)(O)O)O2)c(=O)[nH]c1=O [TMP, thymidine monophosphate] |  |  | Km (recombinant PfTMPK [2]): 11 µM
9 | Cc1cn([C@H]2C[C@H](O)[C@@H](CNC(=O)c3ccc([N+](=O)[O-])cc3)O2)c(=O)[nH]c1=O [Compound 37] | no or very low inhibitory activity |  | 
10 | Cc1cn([C@@H]2C[C@H](O)[C@@H](CNC(=O)Nc3ccc(OCc4cccc(Cl)c4)cc3)O2)c(=O)[nH]c1=O [Compound 85, N-(5′-Deoxy-α-thymidin-5′-yl)-N′-(4-(3-chlorobenzyloxy)phenyl)urea] |  | sub-micromolar activity | 
11 | COc1ccc(COc2ccc(NC(=O)NC[C@H]3O[C@H](n4cc(C)c(=O)[nH]c4=O)C[C@@H]3O)cc2)cc1 [Compound 87, N-(5′-Deoxy-α-thymidin-5′-yl)-N′-(4-(4-methyoxybenzyloxy)phenyl)urea] |  | sub-micromolar activity | 
12 | Cc1cn([C@@H]2C[C@H](O)[C@@H](CNCc3ccc([N+](=O)[O-])cc3)O2)c(=O)[nH]c1=O [Compound 13] | no or very low inhibitory activity |  | 
13 | Cc1cn([C@H]2C[C@H](O)[C@@H](CNC(=O)Nc3ccc(OCc4ccccc4Cl)cc3)O2)c(=O)[nH]c1=O [Compound 89] |  | sub-micromolar activity | drop in activity of β-derivative relative to α-derivative 84 (P. falciparum 3D7): 20 fold
14 | Cc1cn([C@@H]2C[C@H](O)[C@@H](CNC(=O)Nc3ccc(Oc4ccccc4)cc3)O2)c(=O)[nH]c1=O [Compound 66] |  | sub-micromolar activity | plasma protein binding (% bound) [1]: 90.5 % bound; microsomal stability (CLi) (intrinsic clearance): 1.8 mL/min/g; microsomal stability / in vitro DMPK properties, in words (intrinsic clearance): good in vitro DMPK properties
15 | Cc1cn([C@H]2C[C@H](O)[C@@H](CNCc3ccc([N+](=O)[O-])cc3)O2)c(=O)[nH]c1=O [Compound 38] | no or very low inhibitory activity |  | 
16 | Cc1cn([C@@H]2C[C@H](O)[C@@H](CNC(=O)c3ccc([N+](=O)[O-])cc3)O2)c(=O)[nH]c1=O [Compound 12] | no or very low inhibitory activity |  | 
17 | Cc1cn([C@H]2C[C@H](O)[C@@H](CNS(=O)(=O)c3ccc([N+](=O)[O-])cc3)O2)c(=O)[nH]c1=O [Compound 34] | no or very low inhibitory activity |  | 
18 | Cc1cn([C@@H]2C[C@H](O)[C@@H](CNS(=O)(=O)c3ccc([N+](=O)[O-])cc3)O2)c(=O)[nH]c1=O [Compound 9] | no or very low inhibitory activity |  | 
19 | COc1ccc(NC(=O)NC[C@H]2O[C@H](n3cc(C)c(=O)[nH]c3=O)C[C@@H]2O)cc1 [Compound 26] |  |  | increase in potency against the parasite compared to compound 17 (P. falciparum 3D7; ratio of EC50 values versus starting compound 17): 10 fold
20 | Cc1cn([C@@H]2C[C@H](O)[C@@H](CNC(=O)Nc3ccc(OCc4ccccc4Cl)cc3)O2)c(=O)[nH]c1=O [Compound 84, N-(5′-Deoxy-α-thymidin-5′-yl)-N′-(4-(2-chlorobenzyloxy)phenyl)urea] |  | sub-micromolar activity | plasma protein binding (% bound) [1]: 94.1 % bound; microsomal stability (CLi) (intrinsic clearance): 6 mL/min/g; microsomal stability / in vitro DMPK properties, in words (intrinsic clearance): rapid turnover
21 | Cc1cn([C@@H]2C[C@H](O)[C@@H](CNC(=O)Nc3ccc(OCc4ccc(Cl)cc4)cc3)O2)c(=O)[nH]c1=O [Compound 86, N-(5′-Deoxy-α-thymidin-5′-yl)-N′-(4-(4-chlorobenzyloxy)phenyl)urea] |  | sub-micromolar activity | 

Reference: article PMC3530961 (Journal of Medicinal Chemistry, 2012)
